Reference: ChEMBL document CHEMBL1147270, “Discorhabdins S, T, and U, new cytotoxic pyrroloiminoquinones from a deep-water Caribbean sponge of the genus Batzella” (J Nat Prod, 2003)

How the values were obtained:
Format in all cases: functional, cell-based
PANC-1 = assay: Cytotoxicity against human PANC1 cells after 96 hrs by MTT assay; conditions: PANC-1, 96 h
A549 = assay: Cytotoxicity against human A549 cells after 96 hrs by MTT assay; conditions: A549, 96 h
P388 = assay: Cytotoxicity against mouse P388 cells after 48 hrs by MTT assay; conditions: P388, 48 h

Row | Structure (SMILES) | IC50 (PANC-1) [µM] | IC50 (A549) [µM] | IC50 (P388) [µM]
1 | CSC1=CC(=O)C(Br)=C[C@]12CCNC1=C2c2nccc3cn(C)c(c23)C1=O [DISCORHABDIN S] | 2.6 | > 5 | 3.08
2 | CSC1=CC(=O)C(Br)=C[C@]12C=CNC1=C2c2nccc3cn(C)c(c23)C1=O [DISCORHABDIN T] | 0.7 | > 5 | > 5
3 | CSC1=CC(=O)C(Br)=C[C@]12C=CNC1=C2C2=NCCc3cn(C)c(c32)C1=O [DISCORHABDIN U] | 0.069 | 0.17 | 0.17
